This is an account of results in patent US20090209536A1, “AMINOQUINAZOLINE CANNABINOID RECEPTOR MODULATORS FOR TREATMENT OF DISEASE” (KALYPSYS, INC., priority 2007, published 2009).

For experiment [1], the target named is T1, human cannabinoid receptor type 2 (Homo sapiens, UniProt P34972).
T1 construct: expressed in transfected cells; membrane preparation
The experiment can be described thus: Human CB2 Radioligand Binding Assay. Particulars: membranes from stably transfected CHO CB2 cells. How it is done:
1. Human CB2 Radioligand Binding Assay
This receptor binding filtration assay measures the receptor-ligand interactions of compounds by measuring ability to compete with a radiolabeled control ligand. Reactions were performed in 96 deep-well plate (Costar 3961) with a final volume of 600 ul. Compounds were added to each well either in single point (10 uM final) or dose-response. Compounds were delivered in DMSO or further diluted in incubation buffer to a final assay DMSO concentration of 1%. Incubation buffer (50 mM Tris-HCl pH 7.4, 2.5 mM EGTA, 5 mM MgCl2, 5.0 mg/ml fatty acid free BSA) was added to each well. Following buffer addition, [^3H] CP-55,940 was added. Tritiated CP-55,940 (Perkin Elmer) was used at the Kd determined from prior saturation binding experiments conducted on each lot of membranes. Membrane preparations from stably transfected CHO CB2 cells were added and the reaction was incubated for 90 minutes at 30° C. Unifilter GF/C filtration plates (Perkin Elmer) were pre-wet with 0.05% polyethylenimine. Samples were transferred to Unifilter plates and separation of unbound radioligand was achieved using a vacuum manifold (Millipore). Following thorough washing with 5 ml/well ice-cold wash buffer (50 mM Tris-HCl pH 7.4, 2.5 mM EGTA, 5 mM MgCl2, 0.5 mg/ml fatty acid free BSA), filterplates were dried completely. Betaplate Scint Scintillation cocktail (25 ul, Perkin Elmer) was applied and plates were read using Microbeta Trilux (Wallac). Data analysis was performed in Spotfire. Activity of the positive control (100 nM CP-55,940) was set as 100% efficacy.
Stable recombinant Human CB2-CHO cell membranes were prepared as follows: Chinese Hamster Ovarian (CHO) cells stably expressing human cannabinoid receptor type 2 were grown to 90% confluence in 15×100 mm culture dishes under puromycin selection (5 ug/ml) Cells were harvested from culture flasks using a cell scraper, were washed once with cold phosphate-buffered saline (calcium and magnesium free) and pelleted by centrifugation at 400 g for 5 min at 4° C. Cell pellet was washed once with cold phosphate-buffered saline and centrifuged again at 400×g for 5 min at 4° C. The pellet was suspended in ice-cold lysis buffer (10 mM Tris-HCl, 0.1 mM EDTA, containing […], pH 7.5) and homogenized in a chilled 7 ml glass dounce homogenizer using 50 strokes. The homogenate was centrifuged at 400 g for 15 min at 4° C. The cloudy supernatant was collected and centrifuged at 41000 g for 30 min at 4° C. The resulting pellet was washed with ice-cold sucrose-free lysis buffer and centrifuged again at 41000 g for 30 min at 4° C. The membrane pellet was suspended in sucrose-free storage buffer (10 mm Tris-HCl, 0.1 mM EDTA, pH 7.5) to a concentration of 2-3 mg protein/ml. Aliquots were flash frozen in liquid nitrogen and stored at −80° C. Concentration was determined using Dc protein assay kit (Bio-Rad).

The target of experiment [2] is T2, human cannabinoid receptor type 1 (Homo sapiens, UniProt P21554).
T2 construct: purchased Perkin Elmer RBHCB1M; host or cells: HEK 293 EBNA cells
T2 sequence (P21554 whole entry): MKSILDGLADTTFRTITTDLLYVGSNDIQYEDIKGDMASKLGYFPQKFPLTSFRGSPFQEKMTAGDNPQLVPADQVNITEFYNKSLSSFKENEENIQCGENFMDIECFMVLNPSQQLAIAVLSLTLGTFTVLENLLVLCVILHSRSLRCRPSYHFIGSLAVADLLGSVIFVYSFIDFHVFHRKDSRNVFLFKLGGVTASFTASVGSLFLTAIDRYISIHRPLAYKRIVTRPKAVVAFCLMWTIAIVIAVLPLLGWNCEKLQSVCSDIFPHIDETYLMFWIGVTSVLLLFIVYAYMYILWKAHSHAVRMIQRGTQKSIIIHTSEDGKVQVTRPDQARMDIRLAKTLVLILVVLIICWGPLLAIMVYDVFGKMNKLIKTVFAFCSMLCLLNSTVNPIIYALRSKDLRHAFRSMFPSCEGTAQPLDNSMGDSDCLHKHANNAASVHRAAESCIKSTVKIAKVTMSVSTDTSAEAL
The experiment can be described thus: Human CB1 Radioligand Binding Assay (basis of selectivity, CB2 vs. CB1). To be noted: CB1: HEK 293 EBNA cells expressing human CB1; CB2: CHO CB2 membranes. As for the experimental part: 2. Human CB1 Radioligand Binding Assay
The incubation buffer was composed of 50 mM Tris-HCl pH 7.4, 2.5 mM EDTA, 5 mM MgCl2, 5.0 mg/ml fatty acid free BSA and the wash buffer was composed of 50 mM Tris-HCl pH 7.4, 2.5 mM EDTA, 5 mM MgCl2, 0.5 mg/ml fatty acid free BSA.

Setting [3] is: competition with [3H] CP-55,940, read-out: CB2 Ligand Binding Asssay EC50.
Setting [4] is: CB2 Ligand Binding Asssay EC50, competition with [3H] CP-55,940.

Structures are written as SMILES. Where two headings read alike, the source gives them in different places.

T1 sequence (P34972 whole entry): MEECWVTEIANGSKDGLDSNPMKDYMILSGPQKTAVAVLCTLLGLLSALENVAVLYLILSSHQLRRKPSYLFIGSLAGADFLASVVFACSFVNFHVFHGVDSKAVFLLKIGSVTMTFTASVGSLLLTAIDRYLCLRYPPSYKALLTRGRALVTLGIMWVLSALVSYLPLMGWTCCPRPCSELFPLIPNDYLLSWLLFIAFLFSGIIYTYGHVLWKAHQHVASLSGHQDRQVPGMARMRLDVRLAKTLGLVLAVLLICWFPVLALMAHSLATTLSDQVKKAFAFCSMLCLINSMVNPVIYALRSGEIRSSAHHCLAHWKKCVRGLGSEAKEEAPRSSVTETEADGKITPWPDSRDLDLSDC

Consider `CC(C)(C)NC(=O)N1CCN(c2nc(-c3ccccc3Cl)nc3ccccc23)CC1` [Example 89, N-tert-Butyl-4-(2-(2-chlorophenyl)quinazolin-4-yl)piperazine-1-carboxamide], for which the EC50 in experiment [1] (setting [3]) was more than 1000 nM. Besides, the “Selectivity, CB2 vs. CB1” value in experiment [2] is recorded as “− (− indicates ≦ 10−fold)”.

For `CCOC(=O)N1CCN(c2nc(-c3ccc(Cl)cc3)nc3ccccc23)CC1` [Example 200, Ethyl 4-(2-(4-chlorophenyl)quinazolin-4-yl)piperazine-1-carboxylate], the EC50 in experiment [1] (setting [3]) was more than 1000 nM. For the same molecule, the “Selectivity, CB2 vs. CB1” value in experiment [2] is reported as “− (− indicates ≦ 10−fold)”.

With `CCN1CCN(c2nc(-c3ccccc3Cl)nc3ccccc23)C(=O)C1` [Example 73, 1-(2-(2-Chlorophenyl)quinazolin-4-yl)-4-ethylpiperazin-2-one], the EC50 in experiment [1] (setting [3]) was more than 1000 nM. The “Selectivity, CB2 vs. CB1” value in experiment [2] is reported as “− (− indicates ≦ 10−fold)”.

Take `CN(CCCn1ccnc1)c1nc(-c2ccccc2Cl)nc2ccccc12` [Example 259, N-(3-(1H-Imidazol-1-yl)propyl)-2-(2-chlorophenyl)-N-methylquinazolin-4-amine]: the EC50 in experiment [1] (setting [3]) is more than 1000 nM. Besides, in experiment [2], the “Selectivity, CB2 vs. CB1” value is listed as “− (− indicates ≦ 10−fold)”.

For `CC(C)(C)c1ccc(-c2nc(N3CCOCC3)c3ccccc3n2)cc1` [Example 112, 4-(2-(4-tert-Butylphenyl)quinazolin-4-yl)morpholine], in experiment [1] (setting [3]), the EC50 is less than 1000 nM. The “Selectivity, CB2 vs. CB1” value in experiment [2] is “− (− indicates ≦ 10−fold)”.

For the molecule `CC(C)CC(=O)N1CCN(c2nc(-c3ccccc3Cl)nc3cccc(Cl)c23)CC1` [Example 283, 1-(4-(5-Chloro-2-(2-chlorophenyl)quinazolin-4-yl)piperazin-1-yl)-3-methylbutan-1-one], the EC50 in experiment [1] (setting [3]) is more than 1000 nM. For the same molecule, the “Selectivity, CB2 vs. CB1” value in experiment [2] is recorded as “− (− indicates ≦ 10−fold)”.

For the molecule `CC(=O)N1CCN(c2nc(-c3ccccc3Cl)nc3cccc(C(F)(F)F)c23)CC1` [Example 240, 1-(4-(2-(2-Chlorophenyl)-5-(trifluoromethyl)quinazolin-4-yl)piperazin-1-yl)ethanone], the EC50 in experiment [1] (setting [3]) is less than 1000 nM. Further, the “Selectivity, CB2 vs. CB1” value in experiment [2] is “+ (+ indicates > 10−fold)”.

On to `COc1ccc(CNC(=O)c2ccc3nc(-c4ccccc4Cl)nc(N4CCC(C)CC4)c3c2)cc1` [Example 313, 2-(2-Chlorophenyl)-N-(4-methoxybenzyl)-4-(4-methylpiperidin-1-yl)quinazoline-6-carboxamide], for which, in experiment [1] (setting [3]), the EC50 was less than 1000 nM. Moreover, the “Selectivity, CB2 vs. CB1” value in experiment [2] was “− (− indicates ≦ 10−fold)”.

As to `Cc1ccccc1-c1nc(N2CCCC2)c2ccccc2n1` [Example 155, 4-Pyrrolidin-1-yl-2-o-tolylquinazoline], in experiment [1] (setting [3]), the EC50 is more than 1000 nM. Moreover, the “Selectivity, CB2 vs. CB1” value in experiment [2] is “− (− indicates ≦ 10−fold)”.

Turning to `CC(C)NC(=O)N1CCN(c2nc(-c3ccccc3Cl)nc3ccccc23)CC1` [Example 90, 4-(2-(2-Chlorophenyl)quinazolin-4-yl)-N-isopropylpiperazine-1-carboxamide], the EC50 in experiment [1] (setting [4]) is more than 1000 nM. Also, in experiment [2], the “Selectivity, CB2 vs. CB1” value is “− (− indicates ≦ 10−fold)”.

With `O=S(=O)(NCc1nc(N2CCCC2)c2ccccc2n1)c1ccccc1` [Example 3, N-((4-(Pyrrolidin-1-yl)quinazolin-2-yl)methyl)benzenesulfonamide], the EC50 in experiment [1] (setting [3]) is less than 1000 nM. The “Selectivity, CB2 vs. CB1” value in experiment [2] is “+ (+ indicates > 10−fold)”.

Regarding `Cc1ccccc1-c1nc(N2CCCCC2)c2ccccc2n1` [Example 187, 4-Piperidin-1-yl-2-o-tolylquinazoline], in experiment [1] (setting [3]), the EC50 is more than 1000 nM. In addition, in experiment [2], the “Selectivity, CB2 vs. CB1” value is listed as “− (− indicates ≦ 10−fold)”.

`O=S(=O)(NCc1nc(N2CCOCC2)c2ccccc2n1)c1ccc2ccccc2c1` [Example 301, N-((4-Morpholinoquinazolin-2-yl)methyl)naphthalene-2-sulfonamide] had an EC50 in experiment [1] (setting [4]) of more than 1000 nM. Besides, the “Selectivity, CB2 vs. CB1” value in experiment [2] is “− (− indicates ≦ 10−fold)”.

`CC(C)Nc1nc(CNS(=O)(=O)c2cccc3ccccc23)nc2ccccc12` [Example 304, N-((4-(Isopropylamino)quinazolin-2-yl)methyl)naphthalene-1-sulfonamide]: the EC50 in experiment [1] (setting [3]) is less than 1000 nM. Besides, the “Selectivity, CB2 vs. CB1” value in experiment [2] was “− (− indicates ≦ 10−fold)”.

As to `CN1CCN(c2nc(-c3ccc(F)cc3F)nc3ccccc23)CC1` [Example 27, 2-(2,4-Difluorophenyl)-4-(4-methylpiperazin-1-yl)quinazoline], in experiment [1] (setting [3]), the EC50 was less than 1000 nM. For the same molecule, in experiment [2], the “Selectivity, CB2 vs. CB1” value is “− (− indicates ≦ 10−fold)”.

With `Fc1ccc(-c2nc(N3CCCC3)c3ccccc3n2)cc1F` [Example 13, 2-(3,4-Difluorophenyl)-4-(pyrrolidin-1-yl)quinazoline], the EC50 in experiment [1] (setting [3]) was less than 1000 nM. Moreover, in experiment [2], the “Selectivity, CB2 vs. CB1” value is recorded as “− (− indicates ≦ 10−fold)”.

Take `CCCS(=O)(=O)N1CCN(c2nc(-c3ccccc3Cl)nc3ccccc23)CC1` [Example 84, 2-(2-Chlorophenyl)-4-(4-(propylsulfonyl)piperazin-1-yl)quinazoline]: in experiment [1] (setting [3]), the EC50 is more than 1000 nM. Further, the “Selectivity, CB2 vs. CB1” value in experiment [2] is given as “− (− indicates ≦ 10−fold)”.

Take `Fc1ccc(-c2nc(N3CCCCC3)c3ccccc3n2)cc1F` [Example 15, 2-(3,4-difluorophenyl)-4-(piperidin-1-yl)quinazoline]: the EC50 in experiment [1] (setting [3]) is less than 1000 nM. Further, the “Selectivity, CB2 vs. CB1” value in experiment [2] is on record as “− (− indicates ≦ 10−fold)”.

As to `CCOC(=O)N1CCN(c2nc(-c3ccccc3F)nc3cccc(Cl)c23)CC1` [Example 238, Ethyl 4-(5-chloro-2-(2-fluorophenyl)quinazolin-4-yl)piperazine-1-carboxylate], the EC50 in experiment [1] (setting [3]) was less than 1000 nM. The “Selectivity, CB2 vs. CB1” value in experiment [2] is listed as “+ (+ indicates > 10−fold)”.

Regarding `CC(=O)N1CCN(c2nc(-c3ccccc3F)nc3ccc(Cl)cc23)CC1` [Example 271, 1-(4-(6-Chloro-2-(2-fluorophenyl)quinazolin-4-yl)piperazin-1-yl)ethanone], the EC50 in experiment [1] (setting [3]) is less than 1000 nM. Also, in experiment [2], the “Selectivity, CB2 vs. CB1” value is “− (− indicates ≦ 10−fold)”.

`FC(F)(F)Oc1ccc(-c2nc(N3CCCC3)c3ccccc3n2)cc1` [Example 139, 4-Pyrrolidin-1-yl-2-(4-trifluoromethoxyphenyl)quinazoline]: in experiment [1] (setting [3]), the EC50 is less than 1000 nM. In experiment [2], the “Selectivity, CB2 vs. CB1” value is listed as “− (− indicates ≦ 10−fold)”.

As for `CCN(CC)C(=O)c1ccc2c(N3CCN(C(C)=O)CC3)nc(-c3ccccc3Cl)nc2c1` [Example 323, 4-(4-Acetylpiperazin-1-yl)-2-(2-chlorophenyl)-N,N-diethylquinazoline-7-carboxamide], the EC50 in experiment [1] (setting [3]) was more than 1000 nM. Also, in experiment [2], the “Selectivity, CB2 vs. CB1” value is on record as “− (− indicates ≦ 10−fold)”.

As to `CN(Cc1ccccc1)c1nc(-c2ccc(Cl)cc2Cl)nc2ccccc12` [Example 32, N-Benzyl-2-(2,4-dichlorophenyl)-N-methylquinazolin-4-amine], the EC50 in experiment [1] (setting [3]) was more than 1000 nM. For the same molecule, the “Selectivity, CB2 vs. CB1” value in experiment [2] was “− (− indicates ≦ 10−fold)”.

For `O=S(=O)(NCc1nc(N2CCCC2)c2ccccc2n1)c1cccc2ccccc12` [Example 1, N-((4-(Pyrrolidin-1-yl)quinazolin-2-yl)methyl)naphthalene-1-sulfonamide], the EC50 in experiment [1] (setting [3]) was less than 1000 nM. In addition, in experiment [2], the “Selectivity, CB2 vs. CB1” value is “+ (+ indicates > 10−fold)”.

Regarding `CCCCN(C)c1nc(-c2ccccc2Cl)nc2ccccc12` [Example 64, N-Butyl-2-(2-chlorophenyl)-N-methylquinazolin-4-amine], the EC50 in experiment [1] (setting [3]) was less than 1000 nM. Moreover, the “Selectivity, CB2 vs. CB1” value in experiment [2] is “− (− indicates ≦ 10−fold)”.
